Data on one compound can be found in patent publication US11479770B2, “Use of p38 inhibitors to reduce expression of DUX4” (Fulcrum Therapeutics, Inc., priority 2017, dated 2022).

The subject of data set [1] is MBD3L2 mRNA (DUX4 downstream gene). The data set can be described thus: MBD3L2 mRNA expression (qPCR) in FSHD myotubes. Format: cell-based, human. As to conditions: 1 μM. The procedure: On day 0, the media was changed to differentiation media. Plates were removed from the incubator and the growth medium was aspirated, plates were washed once with PBS, 100 μL, for 96-wells and 1 mL for a 6-well plate, 100 μL, or 2 mL of differentiation medium was added per well, 96- or 6-well respectively. Antisense oligonucleotides or drug were added at the desired concentration, and the plates were put back in the incubator and incubated for 3-4 days.
Cells were removed from the incubator and media aspirated. Cells were quickly lysed following one of the following protocols: for lysis in 96-well plates, direct lysis and one-step RT-Preamp qPCR was performed according to the protocol described below. For each 96-well, a mix containing: 19.5 μL Roche Realtime Ready lysis buffer, 0.25 μL RNAse inhibitor, 0.25 μL DNAseI (from Thermo not the included one in the kit) was prepared. 20 μL of the mix was added to each well, mixed 5 times, and incubated 5 minutes at RT or alternatively shaken vigorously for 15 minutes. Lysis was observed under the microscope. Samples were frozen −80° C. at least for 15 minutes.
1-step RT-Preamplification was used for detection of DUX4 downstream genes, i.e., MBD3L2, ZSCAN4, LEUTX, TRIM43, KHDC1L, and POL2RA-VIC was used as endogenous control. Per 10 μL reaction, the reaction mix included: 2.25 μL of RNA (1:10 dilution lysate), 5 μL of Taqman Pre-Amp Master Mix (2×), 0.25 μL of RT enzyme mix (40×), 2.5 μL of Taqman probe set (0.2×)*. * For pooling the TaqMan Assays, equal volumes of each 20× TaqMan® Gene Expression Assay were used, and up to 100 assays were combined. For example, to pool 50 TaqMan assays, 10 μL of each assay were combined in a microcentrifuge tube. The pooled TaqMan assays were diluted using 1× TE buffer so that each assay was at a final concentration of 0.2×. For the above example, 500 μL of 1× TE buffer was added to the pooled TaqMan assays for a total final volume of 1 mL. The QuantStudio7 protocol was used at 48° C. 15 min, 95° C. 10 min, 10 cycles: 95° C. 15 sec, 60° C. 4 min, and 4° C. infinite Samples were then diluted to 50 μL and continued with the qPCR step. Per 10 μL reaction, the reaction mix included: 2 μL of Preamp dilution, 5 μL of Fast Advanced Taqman Master Mix (2×), 0.5 μL of Taqman probe set (20×), and 2.5 μL of H2O. When multiplexing, the volume was adjusted to 10 μL total. The following program was run on the QuantStudio7: 50° C. for 2 min, 95° C. for 30 sec, 40×, 95° C. for 5 sec, 60° C. for 30 sec, and plates were read as per the manufacturers specifications (Thermo).
Wild type myotubes and mature patient-derived FSHD myotubes that express DUX4 protein were treated with DMSO vehicle control or multiple concentrations of various p38α/β inhibitors with different ranges of isoform and kinome selectivity, including SB239063 (FIG. 4A), VX-702 (FIG. 4B), Pamapimod (FIG. 4C), and TAK-715 (FIG. 4D). After treatment, the control and treated cells were processed for realtime PCR quantification of MBD3L2 mRNA (DUX4 downstream gene) and myogenin (MYOG) mRNA (control) expression.
In general terms: In qPCR the cycle at which signal appears reflects the starting amount.

Another data set deals with DUX4 target genes. The data set is described as follows: RNA-seq profiling of FSHD myotubes. To be noted: 1 μM. Format: cell-based, human. The source says: The 40 bp single-end reads from Illumina had good quality by checking with FastQC (http://www.bioinformatics.babraham.ac.uk/projects/fastqc/). Reads were mapped to hg19 using TopHat v2.1.1 (Kim et al., 2013) with options as “solexa1.3-quals” mode and “no-novel-juncs.” The gene model for TopHat was created by merging known gene in gtf format with kgXref table. Both known gene and kgXref were downloaded from UCSC table browser in hg19 assembly. The read counts were obtained using featureCounts function from Subread package with strandness option as −r 2. Reads were normalized with DESeq2 (Love et al., 2014).
The 40 bp single-end reads from Illumina had good quality by checking with FastQC (http://www.bioinformatics.babraham.ac.uk/projects/fastqc/). Reads were mapped to hg19 using TopHat v2.1.1. The gene model for TopHat was created by merging knownGene in gtf format with kgXref table. Both known gene and kgXref were downloaded from UCSC table browser in hg19 assembly. The read counts were obtained using feature Counts function from Subread package with strandness option as -r 2. Reads were normalized with DESeq2. […] Calculated standard RPKM expression values. […]
In addition, gene expression was also determined in wild type myotubes treated with DMSO. Three replicates for each condition were analyzed by RNA-seq and genes were clustered by the direction and intensity of change.

Data set [2] has as its system p38 system (phospho MK2 to total MK2 ratio). The data set can be described thus: Rat PD: phospho MK2 to total MK2 ratio in trapezius muscle. Format: in vivo. The procedure: Approximately 50 mg of muscle tissue was placed on dry ice. Muscle samples were cut, as needed to obtain the 50 mg weight using a clean razor blade per specimen. 50 mg of muscle tissue was placed into a pre-labeled TT1 Covaris bag (Covaris, MA, USA) and kept on dry ice. The TT1 Covaris bag was submerged in liquid nitrogen and the sample was cryofractured in the Covaris cryoPREP (Covaris, MA, USA) on setting “5”. The TT1 bag was rotated 180° and steps 2-a were repeated. The sample was transferred into a pre-weighed/labeled tube and maintained on dry ice until all samples were prepared. Sample weights were recorded. RIPA lysis buffer was prepared (R0278-500ML, Sigma, MO, USA). For 10 ml, two Roche PhosSTOP phosphatase inhibitor tablets and one Roche EDTA-free protease inhibitor tablet were added. To the cryofractured material, 8 μl per mg of RIPA buffer were added to each tube and each tube was vortexed until the lysate was homogeneous. Lysates were maintained on ice until all samples were processed. The lysate was cleared by centrifugation at 13,000 g for 5 minutes at 4° C. The supernatant was transferred to a new tube and snap frozen in liquid nitrogen (setting aside […] for protein assay). To measure the protein content of each sample, a Bradford DC protein assay (5000112, Bio-Rad, CA, USA) was conducted. Samples were diluted 1:20 in PBS for protein assessment.
The homogenized trapezius muscle lysate was assessed using an internally developed Meso Scale Discovery (MSD) multiplexed phospho MK2/total MK2 immunoassay (Meso Scale Diagnostics, MD, USA). For each sample, 50 μL of muscle lysate, equal to 50 μg of protein, was loaded onto the MSD assay. Protein concentrations in muscle lysates were determined by a Bradford DC protein assay as described above. Samples were assessed in duplicate. Muscle samples were incubated on a pre-coated MSD plate overnight at 4° C. while on an orbital shaker (300 rpm) and assessed the following morning.

The subject of data set [3] is DUX4 dependent target genes. The data set is described as follows: Predicted reduction of DUX4 dependent target genes in FSHD patient muscle. Set-up: species or system human. To be noted: from rat muscle concentrations and in vitro FSHD myotube data. The procedure: P38 system target engagement persisted for at least 12 hours following the single dose of FTX-1821 (FIG. 15). P38 system target engagement in trapezius muscle was maximal when plasma and muscle concentrations of FTX-1821 were greater than 20 ng.mL or ng.g and declined at timepoints when exposures decreased. The muscle concentrations of FTX-1821 achieved in the rat study are predicted to result in >70% reduction at Cmax in DUX4 dependent target genes in FSHD patient muscle biopsies based upon in vitro data in FSHD myotubes (above).

The conditions of data set [4]: rat; oral; clinically relevant plasma exposures.
Protocol: Male Sprague Dawley rats (6-8 weeks of age) were supplied by Hilltop Lab Animals, Inc. (USA). Following arrival at Wuxi AppTec, animals were assessed for their general health by a member of veterinary staff or other designated personnel. Animals were acclimated for at least 2 days (upon arrival at WuXi AppTec) before commencement of the study. Animals were individually housed during acclimation and throughout the study. The animal room environment was controlled according to facility operation (target conditions: temperature 20 to 26° C., relative humidity 30 to 70%, 12-hour cycle of lights on and off). Lights, temperature and relative humidity are constantly monitored by AmegaView Environmental Monitoring System. […] Water (reverse osmosis) was provided to the animals ad libitum. […] In study #FULTH-20171120 rats were fasted overnight prior to drug administration: rats were allowed free access to water at all times and were fed 4 hours post dosing. For study #FULTH-20171228 rats were allowed ad-libitum access to food and water throughout the study.
Dose volume was determined by measured body weight prior to dosing. […] Feeding condition: overnight fast, food return 4 hours after dosing.
Blood samples for PK: Approximately 100 μl of blood sample was obtained via jugular vein or tail vein at each pre-defined time point. […]
[5] abbreviates: rat, single oral dose 0.3 mg/kg.

Each structure is given as a SMILES string. Some results are limits rather than exact numbers.

As for `Cc1c(F)cc(C(=O)NC2CC2)cc1-c1ccc(C(=O)NCC(C)(C)C)cn1` [FTX-1821], the “MBD3L2 mRNA in FSHD1 and FSHD2 primary patient myoblast lines” value in data set [1] (to levels similar to healthy control lines) is “reduction”. Besides, in data set [1] (FTCE-016, -020, -197, -196 myotubes, to levels similar to healthy controls), the “MBD3L2 expression levels in four FSHD patient lines” value is “reduced”. The “non-DUX4-regulated genes in total signature” value in the data set with DUX4 target genes (moderate fold changes) is 9/86. Besides, the “expression of differentially expressed (DUX4 pathway) genes by RNA-seq” value in the data set with DUX4 target genes (vs DMSO and wild type) is listed as “normalized”. Also, in data set [2] (rat), the “plasma concentration at maximal inhibition of the p38 system in muscle” value is “greater than 20 ng/mL”. Also, the “plasma and muscle concentrations at maximal p38 system target engagement” value in data set [2] (rat trapezius muscle) is “greater than 20 ng.mL or ng.g”. In addition, the “time to significant decrease of phospho MK2 to total MK2 ratio” value in data set [2] (rat trapezius, single oral dose 0.3 mg/kg) is ≤ 1 h. In addition, in data set [2] (setting [5]), the “persistence of p38 system target engagement” value is given as “at least 12 hours” and the “phospho MK2 to total MK2 ratio in trapezius muscle” value is recorded as “significantly decreased”. In data set [3], the “predicted reduction at Cmax in DUX4 dependent target genes in FSHD patient muscle biopsies” value is > 70%. The “Muscle to plasma exposure ratios” value in data set [4] was ≥ 1.
